This is an account of results in patent publication US10913738B2 (BRISTOL-MYERS SQUIBB COMPANY, priority 2017, dated 2021).

The target of assay [1] is T1, His-GST-TVMV-hRIPK1(1-324) (Homo sapiens, UniProt Q13546).
T1 construct: The coding region of human RIPK1(1-324) flanked by NdeI site at 5′ end; made in house; host or cells: Spodoptera frugiperda (Sf9) insect cells, baculovirus
T1 sequence (Q13546 1-324): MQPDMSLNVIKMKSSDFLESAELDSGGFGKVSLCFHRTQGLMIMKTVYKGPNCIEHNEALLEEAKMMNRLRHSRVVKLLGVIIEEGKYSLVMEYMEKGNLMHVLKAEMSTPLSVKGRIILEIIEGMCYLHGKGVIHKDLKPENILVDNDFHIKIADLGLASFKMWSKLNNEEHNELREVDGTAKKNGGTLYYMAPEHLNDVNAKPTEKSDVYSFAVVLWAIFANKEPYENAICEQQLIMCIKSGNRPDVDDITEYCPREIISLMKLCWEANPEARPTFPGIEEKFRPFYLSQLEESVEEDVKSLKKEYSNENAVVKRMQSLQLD
As to the kind of experiment: RIPK1 HTRF Binding Assay. A general note: In TR-FRET formats the signal depends on donor and acceptor labels being close together.

Assay [2] concerns MLKL phosphorylation in HT29-L23 human colorectal adenocarcinoma cells. Put plainly: MLKL Phosphorylation High-Content Assay. The settings on record: Homo sapiens. The assay is classed as cell-based. An outline of the steps: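 IC50 and Ymax obtained by 4-parameter logistic fitting of MLKL phosphorylation, measured as mean circ-ring average intensity ratio from high-content images. Staining used an anti-phospho-S358 MLKL antibody overnight at 4° C., following six-hour cell incubation at 37° C.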

[3] abbreviates: x marks IC50 class 20-200 nM, read-out: RIPK1 HTRF binding 20-200 nM.
Where [4] appears, read: x marks IC50 class >200 nM, read-out: pMLKL cell activity >200 nM.
[5] abbreviates: x marks IC50 class <20 nM, read-out: RIPK1 HTRF binding <20 nM.
The mark [6] stands for this setting: x marks IC50 class 20-200 nM, read-out: pMLKL cell activity 20-200 nM.
[7] abbreviates: x marks IC50 class <20 nM, read-out: pMLKL cell activity <20 nM.

Like-named read-outs stand apart in the source and are kept apart here. Bounds are passed on as bounds.

In the case of `COc1ncc(-c2ccn3nc(N)nc3c2)nc1C(=O)NCc1cc(OC(F)(F)F)ccc1F` [Example 384, 6-(2-amino-[1,2,4]triazolo[1,5-a]pyridin-7-yl)-N-(2-fluoro-5-(trifluoromethoxy)benzyl)-3-methoxypyrazine-2-carboxamide], the IC50 in assay [1] (setting [3]) is 20 to 200 nM; in assay [2] (setting [4]) it was over 200 nM.

Take `Cc1ncc(-c2ccn3nc(N)nc3c2)cc1C(=O)NCc1ccccc1OCC1CCCCC1` [Example 230, 5-{2-amino-[1,2,4]triazolo[1,5-a]pyridin-7-yl}-N-{[2-(cyclohexylmethoxy)phenyl]methyl}-2-methylpyridine-3-carboxamide]: the IC50 is under 20 nM in assay [1] (setting [5]) and 20 to 200 nM in assay [2] (setting [6]).

Take `CCOc1ncc(-c2ccn3nc(N)nc3c2)cc1C(=O)NCC1(c2ccccc2F)CC1` [Example 274, 5-{2-amino-[1,2,4]triazolo[1,5-a]pyridin-7-yl}-2-ethoxy-N-{[1-(2-fluorophenyl)cyclopropyl]methyl}pyridine-3-carboxamide]: the IC50 in assay [1] (x marks IC50 class >200 nM, read-out: RIPK1 HTRF binding >200 nM) was over 200 nM; in assay [2] (setting [6]) it was 20 to 200 nM.

Turning to `CCOc1ncc(-c2ccn3nc(N)nc3c2)cc1C(=O)NCc1ccccc1OC1CCCC1` [Example 267, 5-{2-amino-[1,2,4]triazolo[1,5-a]pyridin-7-yl}-N-{[2-(cyclopentyloxy)phenyl]methyl}-2-ethoxypyridine-3-carboxamide], the IC50 in assay [1] (setting [5]) was under 20 nM; in assay [2] (setting [6]), 20 to 200 nM.

As to `COc1ncc(-c2ccn3nc(N)nc3c2)cc1NC(=O)Cc1cccc(OC(F)(F)F)c1` [Example 415, N-(5-(2-amino-[1,2,4]triazolo[1,5-a]pyridin-7-yl)-2-methoxypyridin-3-yl)-2-(3-(trifluoromethoxy)phenyl)acetamide], the IC50 in assay [1] (setting [3]) and in assay [2] (setting [6]) was 20 to 200 nM each time.

For the compound `COc1ccc(-c2ccn3nc(N)nc3c2)nc1C(=O)N[C@H](C)c1cc(OC(F)(F)F)ccc1F` [Example 406, (R)-6-(2-amino-[1,2,4]triazolo[1,5-a]pyridin-7-yl)-N-(1-(2-fluoro-5-(trifluoromethoxy)phenyl)ethyl)-3-methoxypicolinamide], the IC50 is 20 to 200 nM in assay [1] (setting [3]) and over 200 nM in assay [2] (setting [4]).

Regarding `Cc1nc(C)c(-c2ccn3nc(N)nc3c2)cc1C(=O)NCc1cccnc1OCC1CCCC1` [Example 183], the IC50 in assay [1] (setting [3]) and in assay [2] (setting [6]) was 20 to 200 nM in each case.

For `[2H]C([2H])([2H])Oc1ncc(-c2ccn3nc(N)nc3c2)cc1C(=O)NCc1cc(F)cc(F)c1OC([2H])([2H])C1CC1` [Example 283, 5-(2-amino-[1,2,4]triazolo[1,5-a]pyridin-7-yl)-N-(2-(cyclopropylmethoxy-d2)-3,5-difluorobenzyl)-2-(methoxy-H3)nicotinamide], the IC50 in assay [1] (setting [5]) and in assay [2] (setting [7]) was under 20 nM in each case.

`CCOc1ncc(-c2ccn3nc(N)nc3c2)cc1C(=O)NCc1ccccc1OC(F)F` [Example 271, 5-{2-amino-[1,2,4]triazolo[1,5-a]pyridin-7-yl}-N-{[2-(difluoromethoxy)phenyl]methyl}-2-ethoxypyridine-3-carboxamide]: the IC50 is 20 to 200 nM in assay [1] (setting [3]) and over 200 nM in assay [2] (setting [4]).

For `Cc1ncc(-c2ccn3nc(N)nc3c2)cc1C(=O)NCc1cc(F)ccc1OCC(F)(F)F` [Example 309, 5-(2-amino-[1,2,4]triazolo[1,5-a]pyridin-7-yl)-N-(5-fluoro-2-(2,2,2-trifluoroethoxy)benzyl)-2-methylnicotinamide], the values for the IC50 in assay [1] (setting [5]) and in assay [2] (setting [4]) were under 20 nM and over 200 nM, respectively.

With `COc1ncc(-c2ccn3nc(N)nc3c2)cc1C(=O)NCc1c(Cl)cccc1Oc1ccccc1` [Example 155, 5-{2-amino-[1,2,4]triazolo[1,5-a]pyridin-7-yl}-N-[(2-chloro-6-phenoxyphenyl)methyl]-2-methoxypyridine-3-carboxamide], the IC50 in assay [1] (setting [5]) and in assay [2] (setting [7]) was under 20 nM each time.
